Measured values reported in article PMC5515969, “Effects of 31 FDA approved small-molecule kinase inhibitors on isolated rat liver mitochondria” (Archives of Toxicology, 2016).

What was measured:
[1] = test system: isolated rat liver mitochondria; experiment: Mitochondrial oxygen consumption (glutamate/malate or succinate driven, state 4 and state 3); type: biochemical; conditions: DMSO treated samples set as 1; on State 3 respiration driven by succinate at 10XCmax: key: 0 indicates that the drug had no effects (negative); on State 3 respiration driven by succinate at 1XCmax: key: 0 indicates that the drug had no effects (negative)
Outline: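 Rat liver mitochondria (1 mg/ml protein) exposed 5 min to kinase inhibitors in 0.1% DMSO, then O2 consumption measured by Clark-type electrode with glutamate/malate or succinate (state 4), ADP added after 3 min (state 3). Rates normalized to 0.1% DMSO controls set to 1.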

[2] = test system: RCC I; experiment: RCC I activity in submitochondrial particles; type: biochemical, rat; design: key to RCC I at 10XCmax / RCC I at 100XCmax / RCC I at 50XCmax / RCC I at 30XCmax / RCC I at 20XCmax: activity relative to DMSO-treated controls (control set as 1 = 100%); conditions: 10XCmax; relative to DMSO treated samples
Outline: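 Abs 340 nm (I/V) or 600 nm (II), 1-min reads × 6 min; 550 nm (III, IV), 10-s reads × 2 min. RCC I = rotenone-free minus rotenone rate. DMSO control = 1.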

[3] = biological target: T1, RCC II (Rattus norvegicus, UniProt P21913+Q641Z9+Q6PCT8+Q920L2); experiment: RCC II activity in submitochondrial particles; type: biochemical; design: key: activity relative to DMSO-treated controls (control set as 1 = 100%); conditions: relative to DMSO treated samples
T1 construct: Submitochondrial particles were prepared by subjecting the intact mitochondria to three successive freeze–thaw cycles; from tissue; host or cells: rat liver mitochondria, used as submitochondrial particles
Outline: (§1)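 Kinase inhibitors were preincubated 15 min with submitochondrial particles (1 mg/ml) before complex activities were measured. RCC I was the rotenone-sensitive portion (activity without minus with rotenone). RCC I/V was read at 340 nm and RCC II at 600 nm every 1 min for 6 min. RCC III and IV were read at 550 nm every 10 s for 2 min. Activities are normalized to DMSO controls set as 1.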

[4] = test system: RCC III; experiment: RCC III activity in submitochondrial particles; type: biochemical, rat; design: key to RCC III at 100XCmax: activity relative to DMSO-treated controls (control set as 1 = 100%); conditions: 100XCmax; relative to DMSO treated samples
Outline: as §1

[5] = test system: RCC IV; experiment: RCC IV activity in submitochondrial particles; type: biochemical, rat; design: key to RCC IV at 50XCmax / RCC IV at 100XCmax: activity relative to DMSO-treated controls (control set as 1 = 100%); conditions: 50XCmax; relative to DMSO treated samples; in %
Outline: as §1

[6] = test system: RCC V; experiment: RCC V activity in submitochondrial particles; type: biochemical, rat; conditions: relative to DMSO treated samples; on RCC V at 5XCmax: key: 0 indicates that the drug had no effects (negative)
Outline: as §1

[7] = test system: isolated rat liver mitochondria; experiment: Mitochondrial inner membrane potential (MMP), Rhodamine 123; type: biochemical; conditions: difference in signal between KI and DMSO treated samples at the end of experiments
Text: Fig. 3 KI effects on mitochondrial inner membrane potential (MMP). […] In a, c, data are means and standard derivations from three separate experiments. *p < 0.05 as compared to DMSO-treated samples at the end of experiments. In b, data are means of two independent experiments

[8] = test system: isolated rat liver mitochondria; experiment: Mitochondrial swelling (absorbance at 535 nm); type: biochemical; conditions: difference in signal between KI and DMSO treated samples at the end of experiments; on Swelling 5XCmax: key: 0 indicates that the drug had no effects (negative)
[9] = 1 = DILI positive, 0 = negative; ref product labeling; cited from earlier work
[10] = test system: isolated rat liver mitochondria; experiment: Mitochondrial ROS production (CM-H2DCFDA); conditions: DMSO treated samples set as 1

T1 sequence (Q920L2 35-656): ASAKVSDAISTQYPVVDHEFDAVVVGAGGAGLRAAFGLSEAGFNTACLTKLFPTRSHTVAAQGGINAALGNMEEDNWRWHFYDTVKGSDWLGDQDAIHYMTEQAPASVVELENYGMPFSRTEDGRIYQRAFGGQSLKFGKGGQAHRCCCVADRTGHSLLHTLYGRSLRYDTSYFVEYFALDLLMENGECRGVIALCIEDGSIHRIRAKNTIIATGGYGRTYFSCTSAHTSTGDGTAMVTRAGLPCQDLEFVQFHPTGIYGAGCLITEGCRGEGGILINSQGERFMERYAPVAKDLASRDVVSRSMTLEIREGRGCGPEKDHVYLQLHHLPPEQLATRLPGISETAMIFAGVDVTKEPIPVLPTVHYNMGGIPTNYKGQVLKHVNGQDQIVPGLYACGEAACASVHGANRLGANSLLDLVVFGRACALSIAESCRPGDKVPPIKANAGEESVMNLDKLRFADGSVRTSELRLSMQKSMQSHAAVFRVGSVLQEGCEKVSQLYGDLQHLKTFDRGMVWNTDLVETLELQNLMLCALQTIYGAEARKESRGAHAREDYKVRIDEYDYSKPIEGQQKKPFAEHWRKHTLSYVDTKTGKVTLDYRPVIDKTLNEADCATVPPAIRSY
T1 sequence (P21913 31-282): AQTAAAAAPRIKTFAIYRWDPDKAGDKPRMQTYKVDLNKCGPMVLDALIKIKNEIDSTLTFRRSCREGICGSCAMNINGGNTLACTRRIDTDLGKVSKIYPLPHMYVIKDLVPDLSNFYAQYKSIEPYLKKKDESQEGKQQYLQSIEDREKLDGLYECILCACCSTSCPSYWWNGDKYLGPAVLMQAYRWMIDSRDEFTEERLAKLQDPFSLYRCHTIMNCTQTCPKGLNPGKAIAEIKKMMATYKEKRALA
T1 sequence (Q641Z9 1-169): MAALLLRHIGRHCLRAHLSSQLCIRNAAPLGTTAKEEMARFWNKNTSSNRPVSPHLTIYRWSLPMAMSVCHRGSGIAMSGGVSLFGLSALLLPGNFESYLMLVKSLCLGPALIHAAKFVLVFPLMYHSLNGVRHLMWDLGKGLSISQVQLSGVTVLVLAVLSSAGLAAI
T1 sequence (Q6PCT8 57-159): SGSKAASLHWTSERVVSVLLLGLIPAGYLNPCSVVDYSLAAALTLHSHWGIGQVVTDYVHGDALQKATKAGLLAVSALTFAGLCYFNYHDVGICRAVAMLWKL

N#CC[C@H](C1CCCC1)n1cc(-c2ncnc3[nH]ccc23)cn1 [ruxolitinib phosphate]
0.54±0.02: State 3 respiration driven by glutamate/malate at 30XCmax ([1]; 30XCmax)
0.62±0.05: State 3 respiration driven by glutamate/malate at 20XCmax ([1]; 20XCmax)
0.49±0.06: State 3 respiration driven by glutamate/malate at 50XCmax ([1]; 50XCmax)
0.28±0.06: State 3 respiration driven by glutamate/malate at 100XCmax ([1]; 100XCmax)
0.71±0.08: State 4 respiration driven by glutamate/malate at 100XCmax ([1]; 100XCmax)
0: State 3 respiration driven by glutamate/malate at 1XCmax ([1]; 1XCmax) | State 3 respiration driven by succinate at 1XCmax ([1]; 1XCmax) | State 4 respiration driven by glutamate/malate at 1XCmax ([1]; 1XCmax) | State 4 respiration driven by succinate at 1XCmax ([1]; 1XCmax) | State 3 respiration driven by glutamate/malate at 2.5XCmax ([1]; 2.5XCmax) | State 3 respiration driven by succinate at 2.5XCmax ([1]; 2.5XCmax) | State 4 respiration driven by glutamate/malate at 2.5XCmax ([1]; 2.5XCmax) | State 4 respiration driven by succinate at 2.5XCmax ([1]; 2.5XCmax) | State 3 respiration driven by glutamate/malate at 5XCmax ([1]; 5XCmax) | State 3 respiration driven by succinate at 5XCmax ([1]; 5XCmax) | State 4 respiration driven by glutamate/malate at 5XCmax ([1]; 5XCmax) | State 4 respiration driven by succinate at 5XCmax ([1]; 5XCmax) | State 3 respiration driven by glutamate/malate at 10XCmax ([1]; 10XCmax) | State 3 respiration driven by succinate at 10XCmax ([1]; 10XCmax) | State 4 respiration driven by glutamate/malate at 10XCmax ([1]; 10XCmax) | State 4 respiration driven by succinate at 10XCmax ([1]; 10XCmax) | State 3 respiration driven by succinate at 20XCmax ([1]; 20XCmax) | State 4 respiration driven by glutamate/malate at 20XCmax ([1]; 20XCmax) | State 4 respiration driven by succinate at 20XCmax ([1]; 20XCmax) | State 3 respiration driven by succinate at 30XCmax ([1]; 30XCmax) | State 4 respiration driven by glutamate/malate at 30XCmax ([1]; 30XCmax) | State 4 respiration driven by succinate at 30XCmax ([1]; 30XCmax) | State 3 respiration driven by succinate at 50XCmax ([1]; 50XCmax) | State 4 respiration driven by glutamate/malate at 50XCmax ([1]; 50XCmax) | State 4 respiration driven by succinate at 50XCmax ([1]; 50XCmax) | State 3 respiration driven by succinate at 100XCmax ([1]; 100XCmax) | State 4 respiration driven by succinate at 100XCmax ([1]; 100XCmax) | RCC I at 10XCmax [2] | RCC II at 1.0XCmax ([3]; 1.0XCmax) | RCC II at 2.5XCmax ([3]; 2.5XCmax) | RCC II at 5XCmax ([3]; 5XCmax) | RCC II at 10XCmax ([3]; 10XCmax) | RCC II at 20XCmax ([3]; 20XCmax) | RCC II at 30XCmax ([3]; 30XCmax) | RCC II at 50XCmax ([3]; 50XCmax) | RCC II at 100XCmax ([3]; 100XCmax) | RCC III at 100XCmax [4] | RCC IV at 50XCmax [5] | RCC V at 5XCmax ([6]; 5XCmax) | RCC V at 50XCmax ([6]; 50XCmax) | MMP measured by Rhodamine 123 at 1XCmax ([7]; 1XCmax) | MMP measured by Rhodamine 123 at 2.5XCmax ([7]; 2.5XCmax) | MMP measured by Rhodamine 123 at 5XCmax ([7]; 5XCmax) | MMP measured by Rhodamine 123 at 10XCmax ([7]; 10XCmax) | MMP measured by Rhodamine 123 at 20XCmax ([7]; 20XCmax) | MMP measured by Rhodamine 123 at 30XCmax ([7]; 30XCmax) | MMP measured by Rhodamine 123 at 50XCmax ([7]; 50XCmax) | MMP measured by Rhodamine 123 at 100XCmax ([7]; 100XCmax) | Swelling 1XCmax ([8]; 1XCmax) | Swelling 2.5XCmax ([8]; 2.5XCmax) | Swelling 5XCmax ([8]; 5XCmax) | Swelling 10XCmax ([8]; 10XCmax) | Swelling 20XCmax ([8]; 20XCmax) | Swelling 30XCmax ([8]; 30XCmax) | Swelling 50XCmax ([8]; 50XCmax) | Swelling 100XCmax ([8]; 100XCmax) | DILI potential (based on labeling) [9] | ROS measured by CM-H2DCFDA at 1XCmax ([10]; 1XCmax) | ROS measured by CM-H2DCFDA at 2.5XCmax ([10]; 2.5XCmax) | ROS measured by CM-H2DCFDA at 5XCmax ([10]; 5XCmax) | ROS measured by CM-H2DCFDA at 10XCmax ([10]; 10XCmax) | ROS measured by CM-H2DCFDA at 20XCmax ([10]; 20XCmax) | ROS measured by CM-H2DCFDA at 30XCmax ([10]; 30XCmax) | ROS measured by CM-H2DCFDA at 50XCmax ([10]; 50XCmax) | ROS measured by CM-H2DCFDA at 100XCmax ([10]; 100XCmax)
